Values joined by “and” are separate entries in the source; they are usually repeats but may differ in a detail not shown here. Identical values can stand only once.
Experiments:
[1] = biological target: T1, Nurr1 (Homo sapiens, UniProt P43354); assay: Gal4-hybrid reporter gene assay, Nurr1; assay type: cell-based; conditions: for activity on Nurr1 (fold reporter activation vs. DMSO ctrl): 30 and 100 µM, Figure S1, mean±SD, n=3; for remain. Nurr1 activity: 30 μM; for agonist activity on Gal4-Nurr1: amide analogues
T1 construct: pFA-CMV-hNurr1-LBD; expressed in transfected cells; host or cells: HEK293T
T1 sequence (P43354 360-595 limits assumed): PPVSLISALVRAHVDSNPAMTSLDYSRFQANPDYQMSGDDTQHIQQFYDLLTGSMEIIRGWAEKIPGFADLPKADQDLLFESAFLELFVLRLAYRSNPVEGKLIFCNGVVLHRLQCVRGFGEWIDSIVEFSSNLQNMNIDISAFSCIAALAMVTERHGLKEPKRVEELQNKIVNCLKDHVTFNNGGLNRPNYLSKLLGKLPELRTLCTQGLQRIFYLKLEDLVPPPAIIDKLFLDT
Protocol: (§1) modified Eagle’s medium (DMEM), high glucose supplemented with 10% fetal calf serum (FCS), sodium pyruvate (1 mM), penicillin (100 U/mL), and streptomycin (100 μg/mL) at 37 °C and 5% CO2 and seeded in 96-well plates (3×10^4 cells/well). After 24 h, the medium was changed to Opti-MEM without supplements, and the cells were transiently transfected using Lipofectamine LTX reagent (Invitrogen) according to the manufacturer’s protocol. Five hours after transfection, the cells were incubated with the test compounds in Opti-MEM supplemented with penicillin (100 U/mL), streptomycin (100 μg/mL), and 0.1% DMSO for 15 h before luciferase activity was measured using the Dual -Glo Luciferase Assay System (Promega) according to the manufacturer’s protocol on a Tecan Spark l uminometer (Tecan Deutschland GmbH, Germany). Firefly luminescence was divided by Renilla luminescence and multiplied by 1000, resulting in relative light units (RLU) to normalize for transfection efficiency and cell growth. Fold activation was obtained by dividing the mean RLU of a sample by the mean RLU of the untreated control. All samples were tested in at least three biologically independent experiments in duplicates. For dose –response curve fitting and calculation of EC50 values, the equation “[Agonist] vs. response – Variable slope (four parameters)” was used in GraphPad Prism (version 5.04, GraphPad Software, La Jolla, CA, USA). […] (10 μM, NR4A) and bexarotene (1 µM, NR2B) served as the positive control. […]
(§2) 150 μM in the same buffer containing 2-4% DMSO) in 21–26 injections (1 × 1 μL and 20 × 4 to 25 × 4 μL) with an injection interval of 120 s. As control experiments, the test compounds were titrated to the buffer, and the buffer was titrated to the protein under otherwise identical conditions. The heat rates of the compound-Nurr1 LBD titrations were analyzed using NanoAnalyze software (TA Instruments, New Castle, DE) with an independent binding model.

[2] = system: RXR; assay: Gal4 hybrid reporter gene assay, RXR (subtype not stated); assay type: cell-based; conditions: for activity on RXR (fold reporter activation vs. DMSO ctrl): 30 and 100 µM, Figure S1, mean±SD, n=3; for RXR activation: amide analogues
Protocol: as §1, §2

[3] = biological target: T2, RXRα (Homo sapiens, UniProt P19793); assay: Gal4-hybrid reporter gene assay, RXRα; assay type: cell-based; conditions: for RXRα activity at single concentration: 30 μM
T2 construct: pFA-CMV-hRXRα-LBD; expressed in transfected cells; host or cells: HEK293T
T2 sequence (P19793 227-458 limits assumed): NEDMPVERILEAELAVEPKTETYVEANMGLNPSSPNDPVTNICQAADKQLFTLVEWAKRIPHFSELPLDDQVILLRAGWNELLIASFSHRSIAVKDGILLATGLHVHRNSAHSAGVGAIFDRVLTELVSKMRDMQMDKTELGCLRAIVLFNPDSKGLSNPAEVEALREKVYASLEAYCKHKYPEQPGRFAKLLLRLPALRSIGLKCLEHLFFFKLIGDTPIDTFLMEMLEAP
Protocol: as §1, §2

[4] = biological target: T3, RXRβ (Homo sapiens, UniProt P28702); assay: Gal4-hybrid reporter gene assay, RXRβ; assay type: cell-based; conditions: for RXRβ activity at single concentration: 30 μM
T3 construct: CMV-hRXRβ-LBD; expressed in transfected cells; host or cells: HEK293T
T3 sequence (P28702 296-529 limits assumed): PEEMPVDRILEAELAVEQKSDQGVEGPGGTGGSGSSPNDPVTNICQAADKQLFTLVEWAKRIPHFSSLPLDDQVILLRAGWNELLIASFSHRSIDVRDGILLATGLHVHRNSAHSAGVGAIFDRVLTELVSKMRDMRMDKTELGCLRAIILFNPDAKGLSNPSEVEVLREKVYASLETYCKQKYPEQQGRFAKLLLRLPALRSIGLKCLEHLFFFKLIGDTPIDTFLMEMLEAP
Protocol: as §1, §2

[5] = biological target: T4, RXRγ (Homo sapiens, UniProt P48443); assay: Gal4-hybrid reporter gene assay, RXRγ; assay type: cell-based; conditions: for RXRγ activity at single concentration: 30 μM
T4 construct: pFA-CMV-hRXRγ-LBD; expressed in transfected cells; host or cells: HEK293T
T4 sequence (P48443 231-459 limits assumed): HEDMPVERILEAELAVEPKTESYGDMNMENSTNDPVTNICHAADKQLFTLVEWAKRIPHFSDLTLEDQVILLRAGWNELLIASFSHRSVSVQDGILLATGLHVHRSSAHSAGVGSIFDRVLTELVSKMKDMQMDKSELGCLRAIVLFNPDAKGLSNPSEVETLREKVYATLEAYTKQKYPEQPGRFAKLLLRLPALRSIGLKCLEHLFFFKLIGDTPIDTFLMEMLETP
Protocol: as §1, §2

[6] = biological target: T5, Nurr1 LBD (Homo sapiens, UniProt P43354); assay: Isothermal titration calorimetry, recombinant Nurr1 LBD; assay type: binding; conditions: ITC
T5 construct: made in house
T5 sequence (P43354 360-595 limits assumed): as the sequence (P43354 360-595 limits assumed) above
Protocol: (§3) Isothermal titration calorimetry. ITC experiments for ligand binding to Nurr1 and RXR were conducted on an Affinity ITC instrument (TA Instruments, New Castle, DE) at 25 °C with a stirring rate of 75 rpm using recombinantly expressed ligand binding domain proteins as described previously5,6. The respective LBD protein (12–25 μM) in buffer (20 mM Tris pH 7.5, 100 mM NaCl, 5% glycerol) containing 2-4% DMSO was titrated with the test compounds (100-150 μM in the same buffer containing 2-4% DMSO) in 21–26 injections (1 × 1 μL and 20 × 4 to 25 × 4 μL) with an injection interval of 120 s. As control experiments, the test compounds were titrated to the buffer, and the buffer was titrated to the protein under otherwise identical conditions. The heat rates of the compound-Nurr1 LBD titrations were analyzed using NanoAnalyze software (TA Instruments, New Castle, DE) with an independent binding model.

[7] = biological target: T6, RXRα LBD (Homo sapiens, UniProt P19793); assay: Isothermal titration calorimetry, recombinant RXRα LBD; assay type: binding; conditions: ITC
T6 construct: made in house
T6 sequence (P19793 227-458 limits assumed): T2 sequence (P19793 227-458 limits assumed)
Protocol: as §3

[8] = biological target: T7, Nurr1 homodimer (Homo sapiens, UniProt P43354); assay: Nurr1 LBD homodimerization assay (HTRF); assay type: biochemical; conditions: 30 μM, Tb3+-cryptate and sGFP labeled Nurr1 LBD
T7 construct: Tb^3+-cryptate labeled and sGFP-labeled Nurr1 LBD proteins; FRET acceptor consisted of sGFP-Nurr1 LBD
T7 sequence (P43354 360-595 limits assumed): as the sequence (P43354 360-595 limits assumed) above
Protocol: (§4) To determine the molecular response of the Nurr1:RXR heterodimer on dual agonist binding, we employed homogenous time-resolved fluorescence resonance energy transfer (HTRF) based assays with labeled Nurr1 and RXR LBD proteins. Tb^3+-cryptate as streptavidin conjugate served as FRET donor and was coupled to biotinylated proteins. sGFP fusion proteins of the receptors of interest were used as FRET acceptors. Ligand effects on dimer formation were determined by titrating the sGFP-labeled dimer partner with a fixed concentration of the Tb^3+-labeled counterpart. […] The same effect was also observable for the natural product 1 (Figure S3).
(§5) Nurr1 dimerization assays (HTRF). Modulation of Nurr1 LBD homodimerization and heterodimerization of the LDBs of Nurr1 and RXRα was investigated by HTRF as reported previously4. Nurr1 LBD or RXRα LBD proteins labeled with sGFP were titrated against a fixed concentration of Tb3+-cryptate as streptavidin conjugate (Tb-SA) (610SATLF, Revvity) coupled to biotinylated Nurr1 LBD protein in the presence of test compounds at 30 µM or absence of compound as a negative control (apo). Assay solutions were prepared in buffer containing 25 mM HEPES pH 7.5, 150 mM KF, 5% (m/v) glycerol, 5 mM DTT, 0.1% (m/v) CHAPS and 1%
(§6) DMSO. The FRET donor complex was formed from biotinylated Nurr1 LBD (final concentration 0.188 nM) and Tb-SA (0.375 nM) and was kept constant. For the homodimerization assay, the FRET acceptor consisted of sGFP-Nurr1 LBD, which was titrated from 0.5 µM, while free sGFP was added to keep the total GFP content stable at 0.5 µM. […] Samples were equilibrated at room temperature for 2 h and fluorescence intensities (FI) after excitation at 340 nm were recorded at 520 nm for sGFP acceptor fluorescence and at 620 for Tb-SA donor fluorescence on a SPARK plate reader (Tecan Group Ltd.). […]
(§7) Evaluation of Nurr1-regulated gene expression. […] RNA concentration and purity were assessed using a NanoDrop One UV-vis spectrophotometer (Thermo Fisher Scientific) at 260/280 nm. […]

[9] = biological target: Nurr1:RXR heterodimer (Homo sapiens, UniProt P19793+P43354); assay: Nurr1 LBD:RXRα LBD heterodimerization assay (HTRF); assay type: biochemical; conditions: 10 µM, Figure S4
Chain of Nurr1:RXR heterodimer (P43354 360-595 limits assumed, one chain of several): as the sequence (P43354 360-595 limits assumed) above
Protocol: as §4, §5, §6, §7

[10] = Gal4-hybrid reporter gene assay
[11] = Gal4-hybrid reporter gene assay, mean±S.E.M., n≥3

CC(=O)O[C@@H]1CC(C)=C2[C@H]1[C@H](C)CC[C@H]2/C=C(\C)C(=O)O [VA-OAc, acetoxy-valerenic acid, reference compound]
activity on Nurr1 (fold reporter activation vs. DMSO ctrl) [1]: no activity | activity on RXR (fold reporter activation vs. DMSO ctrl) [2]: no activity

Cc1c2c(n(-c3ccc(CC(N)=O)cc3)c1C)CCC(F)(F)C2 [compound 4]
remain. Nurr1 activity [1, 10]: 86±9% remain. Nurr1 activity (30 μM) | agonist activity on Gal4-Nurr1 [1]: lost agonist activity | RXRα activity at single concentration [3]: α: inactive (30 μM) β: inactive (30 μM) γ: inactive (30 μM) | RXRβ activity at single concentration [4]: α: inactive (30 μM) β: inactive (30 μM) γ: inactive (30 μM) | RXRγ activity at single concentration [5]: α: inactive (30 μM) β: inactive (30 μM) γ: inactive (30 μM) | Kd(Nurr1 LBD) [6]: no binding detected | Kd(RXRα LBD) [7]: no binding detected | RXR activation [2]: failed to activate RXR

CC1=C2[C@H](/C=C(\C)C(=O)O)CC[C@@H](C)[C@H]2CC1 [compound 1, valerenic acid]
max. act. (Nurr1) ([1]; Gal4-hybrid reporter gene assay, max. fold activation): 1.3 fold and 1.3±0.1 fold | EC50 [1, 11]: 3 ± 1 µM | max. act. (RXR) α [3, 10]: 9±1 fold | EC50 [3, 11]: 27 µM | max. act. (RXR) β [4, 10]: 69±1 fold | EC50 [4, 11]: 5.2 µM | max. act. (RXR) γ [5, 10]: 4±1 fold | EC50 [5, 11]: 43 µM | Nurr1 homodimer formation [8]: same effect

Cc1c(C)n(-c2ccc(CC(N)=O)cc2)c2ccc(F)cc12 [compound 5]
remain. Nurr1 activity [1, 10]: 85±7% remain. Nurr1 activity (30 μM) | agonist activity on Gal4-Nurr1 [1]: lost agonist activity | RXRα activity at single concentration [3]: α: inactive (30 μM) β: inactive (30 μM) γ: inactive (30 μM) | RXRβ activity at single concentration [4]: α: inactive (30 μM) β: inactive (30 μM) γ: inactive (30 μM) | RXRγ activity at single concentration [5]: α: inactive (30 μM) β: inactive (30 μM) γ: inactive (30 μM) | Kd(Nurr1 LBD) [6]: no binding detected | Kd(RXRα LBD) [7]: no binding detected | RXR activation [2]: failed to activate RXR

CC1=C2[C@@H]([C@H](C)CC[C@H]2/C=C(\C)C(=O)O)[C@H](O)C1 [VA-OH, hydroxy-valerenic acid, reference compound]
activity on Nurr1 (fold reporter activation vs. DMSO ctrl) [1]: no activity | activity on RXR (fold reporter activation vs. DMSO ctrl) [2]: no activity

CC1(C)CCC(C)(C)c2cc(C3(c4ccc(C(=O)O)cc4)OCCO3)ccc21 [SR11237, reference compound]
Nurr1:RXR heterodimer formation (dimer strength) [9]: Diminished dimer strength

Source: paper PMC7618597, “Dual Nurr1/RXR agonism of valerenic acid and synthetic mimetics enables dimer-selective Nurr1 modulation” (ACS medicinal chemistry letters, 2025)
